Measured values from PubChem BioAssay (NCI).
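Following 48 hours of exposure in 96-well plates, responses at five concentrations were used to interpolate endpoints linearly. Definition used: TGI = concentration required for complete inhibition of growth.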

Tests used:
Assay in all cases: DTP human tumour cell line panel, 48 h
A498 renal = test system: A498 renal
CCRF-CEM leukemia = test system: CCRF-CEM leukemia
COLO 205 colon = test system: COLO 205 colon
HCT-116 colon = test system: HCT-116 colon
IGROV1 ovarian = test system: IGROV1 ovarian
K-562 leukemia = test system: K-562 leukemia
KM12 colon = test system: KM12 colon
MALME-3M melanoma = test system: MALME-3M melanoma
MDA-N = test system: MDA-N
MOLT-4 leukemia = test system: MOLT-4 leukemia
NCI-H23 lung = test system: NCI-H23 lung
OVCAR-4 ovarian = test system: OVCAR-4 ovarian
OVCAR-8 ovarian = test system: OVCAR-8 ovarian
SK-MEL-2 melanoma = test system: SK-MEL-2 melanoma
SW-620 colon = test system: SW-620 colon
TK-10 renal = test system: TK-10 renal
U251 CNS = test system: U251 CNS
UACC-62 melanoma = test system: UACC-62 melanoma

SMILES	TGI (A498 renal) [µM]	TGI (CCRF-CEM leukemia) [µM]	TGI (COLO 205 colon) [µM]	TGI (HCT-116 colon) [µM]	TGI (IGROV1 ovarian) [µM]	TGI (K-562 leukemia) [µM]	TGI (KM12 colon) [µM]	TGI (MALME-3M melanoma) [µM]	TGI (MDA-N) [µM]	TGI (MOLT-4 leukemia) [µM]	TGI (NCI-H23 lung) [µM]	TGI (OVCAR-4 ovarian) [µM]	TGI (OVCAR-8 ovarian) [µM]	TGI (SK-MEL-2 melanoma) [µM]	TGI (SW-620 colon) [µM]	TGI (TK-10 renal) [µM]	TGI (U251 CNS) [µM]	TGI (UACC-62 melanoma) [µM]
O=C(CSc1ncccn1)N/N=C/c1ccccc1OCc1ccccc1	71.8	57.9	38.8	53.4	> 100	> 100	> 100	> 100	60.9	65.8	> 100	> 100	> 100	47.6	> 100	62.4	81.7	50.4
CC[C@]12C=CCN3CC[C@@]4(c5cc(Br)c(OC)c([N+](=O)[O-])c5N(C)[C@H]4[C@@](O)(C(=O)OC)[C@@H]1OC(C)=O)[C@@H]32	> 100	> 100	> 100	> 100	61.4	> 100	> 100	> 100	> 100	70.6	> 100	> 100	> 100	> 100	> 100	> 100	> 100	> 100
OC1=C2c3ccccc3NC2Oc2cc(F)ccc21 (stereo not drawn)	32.4	7.21	27.6	28.7	> 100	48.5	31.2	48.5	31.4	34.5	36	50.6	> 100	41.8	47.9	47.1	29.6	34.7
C[C@]12CCC(O)CC1=CC[C@@H]1[C@@H]2CC[C@]2(C)C(O)[C@H](n3ccnc3)C[C@@H]12 (stereo partly drawn)	> 100	> 100	> 100	> 100	> 100	> 100	> 100	> 100	> 100	80.1	> 100	> 100	> 100	> 100	> 100	> 100	> 100	> 100
O=C1CSC(c2ccccc2)N1c1nc2cc3sc(N4C(=O)CSC4c4ccccc4)nc3cc2s1 (stereo not drawn)	> 100	> 84.1	> 26.9	> 100	> 100	> 100	> 100	> 100	> 100	> 100	> 100	> 100	> 100	> 100	> 100	> 100	> 100	> 100
COc1ccc(CNc2ccn(C3OC(CO)C(O)C3O)c(=O)n2)cc1 (stereo not drawn)	> 100	> 100	> 100	> 100	> 100	> 100	> 100	> 100	> 100	> 100	> 100	> 100	> 100	> 100	> 100	> 100	> 100	> 100
Cc1sc2nc(N(C)C)oc(=O)c2c1C	> 100	> 100	> 100	> 100	> 100	> 100	> 100	> 100	> 100	> 100	> 100	> 100	> 100	> 100	> 100	> 100	> 100	> 100
COc1cc(C(=O)NNC(=O)c2cc(Br)ccc2NC(=O)c2cccs2)cc(OC)c1OC	55	> 100	25.5	51.5	> 100	11.9	> 100	86.1	74.9	> 100	57.1	51.4	59.9	44.9	> 100	> 100	44.6	34.1
CC(=O)C(C(=O)c1ccc(C)cc1)[C@@H]1OC(C)(C)O[C@@H]1[C@H]1COC(C)(C)O1 (stereo partly drawn)	> 75.7	> 36.2	39.6	15.4	> 74.8	> 32	65.6	34	54.3	22.1	32.6	> 26.3	> 50.7	> 23.2	> 54.6	> 100	18.5	25.8
O=C1CC(Br)c2c(Br)sc(Br)c21 (stereo not drawn)	> 100	9.42	33.9	26.4	33.5	29.9	49	38.3	28.8	25.5	32	33.3	29.6	35.8	26.5	32.4	31.1	30.8
CC1=NN(c2cccc(S(=O)(=O)O)c2)C2(C1)C(Cl)C(=O)N2c1nc2ccccc2s1 (stereo not drawn)	34	3.67	24.8	20.4	3.5	> 41.4	27.4	17.3	27.7	11.8	13.5	14.9	19.1	15.4	21.1	27.3	16.3	19.1
